Data published in ChEMBL document CHEMBL1201862, “PubChem BioAssay data set” (2004).
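Values below derive from 48-hour exposures of cells grown in 96-well plates, with endpoints linearly interpolated between the two concentrations bracketing the appropriate inhibition level. Here, GI50 denotes the concentration required for 50% inhibition of growth.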 Calls of active or inactive are those of the source. No stated cut-off is given here; in the data, active = GI50 up to about 1.1 µM and inactive = higher.

Tests used:
Experiment in all cases: growth of human tumour cells (NCI), 48 h
[1] = system: RPMI-8226
[2] = system: SF-268
[3] = system: OVCAR-8
[4] = system: HCT-15
[5] = system: SW-620
[6] = system: HL-60
[7] = system: KM-20L2
[8] = system: MDA-MB-435
[9] = system: MOLT-4
[10] = system: BT-549
[11] = system: RXF 393
[12] = system: TK-10
[13] = system: SK-OV-3
[14] = system: SNB-75
[15] = system: M14
[16] = system: 786-0
[17] = system: Hs-578T
[18] = system: A549
[19] = system: DU-145
[20] = system: HT-29
[21] = system: U-251
[22] = system: EKVX
[23] = system: RXF 631
[24] = system: HOP-92
[25] = system: OVCAR-4
[26] = system: UACC-257
[27] = system: LXFL 529
[28] = system: Malme-3M
[29] = system: SK-MEL-2
[30] = system: MDA-N
[31] = system: NCI-H460
[32] = system: CAKI-1
[33] = system: SNB-78
[34] = system: MCF7
[35] = system: T47D
[36] = system: COLO 205
[37] = system: DMS-114
[38] = system: HOP-18
[39] = system: OVCAR-3
[40] = system: UO-31
[41] = system: K562
[42] = system: M19-MEL
[43] = system: SNB-19
[44] = system: CCRF-CEM
[45] = system: XF498
[46] = system: SK-MEL-28
[47] = system: KM12
[48] = system: DLD-1
[49] = system: ACHN
[50] = system: HCC 2998
[51] = system: SK-MEL-5
[52] = system: SR
[53] = system: MDA-MB-231
[54] = system: PC-3
[55] = system: DMS-273
[56] = system: OVCAR-5
[57] = system: NCI-H522
[58] = system: SF-295
[59] = system: HCT-116
[60] = system: LOX IMVI
[61] = system: NCI-H23
[62] = system: IGROV-1
[63] = system: A498
[64] = system: SF-539
[65] = system: UACC-62
[66] = system: HOP-62

With `ClC(Cl)=C1C(=C(Cl)Cl)C(Cl)(Cl)C1(Cl)Cl` the GI50 [1] was 0.558 µM (active), the GI50 [2] was 2.21 µM (inactive) and the GI50 [3] was 1.49 µM (inactive). For the same compound, the GI50 [4] was 1.14 µM, the GI50 [5] was 1.18 µM (inactive) and the GI50 [6] was 0.625 µM (active). For the same compound, the GI50 [7] was 4.41 µM (inactive), the GI50 [8] was 2.71 µM (inactive) and the GI50 [9] was 0.126 µM (active). The GI50 [10] was 2.77 µM (inactive), the GI50 [11] was 1.45 µM (inactive) and the GI50 [12] was 3.52 µM (inactive). The GI50 [13] was 14.9 µM (inactive), the GI50 [14] was 3.18 µM (inactive) and the GI50 [15] was 1.06 µM (active). The GI50 [16] was 1.07 µM (active), the GI50 [17] was 2.36 µM (inactive) and the GI50 [18] was 9.51 µM (inactive). The GI50 [19] was 10.7 µM (inactive), the GI50 [20] was 2.02 µM (inactive) and the GI50 [21] was 5.41 µM (inactive). For the same compound, the GI50 [22] was 7.52 µM (inactive), the GI50 [23] was 3.21 µM (inactive) and the GI50 [24] was 1.24 µM (inactive). The GI50 [25] was 5.07 µM (inactive), the GI50 [26] was 3.51 µM (inactive) and the GI50 [27] was 0.938 µM (active). For the same compound, the GI50 [28] was 2.42 µM (inactive), the GI50 [29] was 1.29 µM (inactive) and the GI50 [30] was 1.37 µM (inactive). For the same compound, the GI50 [31] was 3.93 µM (inactive), the GI50 [32] was 2.89 µM (inactive) and the GI50 [33] was 2.34 µM (inactive). For the same compound, the GI50 [34] was 4.47 µM (inactive), the GI50 [35] was 4.92 µM (inactive) and the GI50 [36] was 2.92 µM (inactive). The GI50 [37] was 0.748 µM (active), the GI50 [38] was 5.9 µM (inactive) and the GI50 [39] was 4.31 µM (inactive). The GI50 [40] was 3.05 µM (inactive), the GI50 [41] was 0.443 µM (active) and the GI50 [42] was 2.72 µM (inactive). The GI50 [43] was 12.5 µM (inactive), the GI50 [44] was 0.101 µM (active) and the GI50 [45] was 9.2 µM (inactive). For the same compound, the GI50 [46] was 1.44 µM (inactive), the GI50 [47] was 4.9 µM (inactive) and the GI50 [48] was 1.22 µM (inactive). For the same compound, the GI50 [49] was 2.48 µM (inactive), the GI50 [50] was 4.78 µM (inactive) and the GI50 [51] was 2.82 µM (inactive). For the same compound, the GI50 [52] was 0.214 µM (active), the GI50 [53] was 2.4 µM (inactive) and the GI50 [54] was 2.31 µM (inactive). For the same compound, the GI50 [55] was 2.64 µM (inactive), the GI50 [56] was 2.64 µM (inactive) and the GI50 [57] was 0.0612 µM (active). The GI50 [58] was 2.48 µM (inactive), the GI50 [59] was 1.36 µM (inactive) and the GI50 [60] was 0.212 µM (active). For the same compound, the GI50 [61] was 1.04 µM (active), the GI50 [62] was 5.55 µM (inactive) and the GI50 [63] was 11.6 µM (inactive). For the same compound, the GI50 [64] was 2.34 µM (inactive), the GI50 [65] was 1.95 µM (inactive) and the GI50 [66] was 8.18 µM (inactive).
